Assays:
COX-2 [1] = molecular target: T1, COX-2 (Mus musculus, UniProt Q05769); assay: PET imaging of wild-type mice (controls); type: in vivo; conditions: WT mice (n = 4)
T1 construct: from tissue; host or cells: brain of living wild-type mice (Strain C57BL/6J)
T1 sequence (Q05769 18-604): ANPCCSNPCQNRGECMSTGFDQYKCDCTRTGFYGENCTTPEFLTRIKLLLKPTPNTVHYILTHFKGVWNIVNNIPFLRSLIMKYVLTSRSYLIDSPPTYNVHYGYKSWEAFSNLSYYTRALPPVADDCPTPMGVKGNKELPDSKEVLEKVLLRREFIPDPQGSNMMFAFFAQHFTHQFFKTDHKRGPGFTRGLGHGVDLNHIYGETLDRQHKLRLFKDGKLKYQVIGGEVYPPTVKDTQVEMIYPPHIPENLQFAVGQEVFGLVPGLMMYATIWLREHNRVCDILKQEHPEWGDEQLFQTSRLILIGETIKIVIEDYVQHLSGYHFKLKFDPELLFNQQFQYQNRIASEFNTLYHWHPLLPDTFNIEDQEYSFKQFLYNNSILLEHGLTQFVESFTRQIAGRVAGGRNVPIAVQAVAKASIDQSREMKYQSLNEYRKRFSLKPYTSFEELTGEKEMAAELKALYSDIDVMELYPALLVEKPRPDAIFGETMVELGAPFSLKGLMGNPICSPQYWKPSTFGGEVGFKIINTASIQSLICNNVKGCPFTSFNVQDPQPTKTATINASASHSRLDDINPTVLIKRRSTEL
Description: (§1) We performed additional validation of [^11C]BRD1158 through in vivo PET imaging of an hCOX-2 transgenic mouse line (Figure 3), which overexpressed human COX-2 primarily in neurons (Strain No. 010703, Jackson Laboratories). […] While we did perform contralateral sham (control virus) injections in the AAV rats to assess potential injection confounds, as COX-2 is part of the injury and inflammation response, it was important to validate in a model naïve to brain insult to mitigate how aspects of the AAV rat experimental design could have misled our interpretations of tracer specific binding.
(§2) In accordance with Massachusetts General Hospital Institutional Animal Care and Use Committee (IACUC) protocols, Sprague Dawley rats (300-500g, Charles River Laboratories), wildtype mice (Strain C57BL/6J), and human Thy-1-COX-2 transgenic line 303 mice (Strain 010703, Jackson Laboratories) were used in these studies. All animals were housed in a standard animal facility with access to conventional rodent food and water ad libitum and a 12 -hour day/night schedule. All animals were allowed to acclimate before any experime ntal procedures. Only male animals were used for imaging experiments .
(§3) Animals were induced under anesthesia using 1 -3% isoflurane in a carrier of 1.0 -1.5 L/min oxygen.
(§4) Maintenance of isoflurane depended on procedure and species, rats 2 -3% and mice 1-2%. Rats undergoing surgeries had higher isoflurane maintenance at 3 -4%. After induction, the animals’ body temperatures were regulated using a support heating pad or fan throughout all experiments.
(§5) Respiratory rates and body temperature were monitored through all imaging and surgical procedures, generally using a respiratory pad and rectal probe. Injections were made through the lateral tail vein.
(§6) Rats were cannulated with an IV extension using a 60 in, 0.3 mL volume IV extender (Smith Medical) and a 24 ga x 0.75 in IV catheter (McKesson). Mice were cannulated with Intramedic PE10 tubing (BD […]
(§7) Group 2 animals then […]

COX-2 [2] = molecular target: T2, COX-2 (Homo sapiens, UniProt P35354); assay: PET imaging of h-Thy1 COX-2 transgenic mice; type: in vivo, mouse; set-up: FLAG; P2A linker remnant (GFP cassette co-expressed, separated by P2A); host or cells: rat striatal (caudate putamen) neurons transduced in vivo with AAV2, human synapsin promoter; conditions: for SUV Average (9–21 min): h-Thy1 COX-2 mice (n = 5)
T2 sequence (P35354 18-604): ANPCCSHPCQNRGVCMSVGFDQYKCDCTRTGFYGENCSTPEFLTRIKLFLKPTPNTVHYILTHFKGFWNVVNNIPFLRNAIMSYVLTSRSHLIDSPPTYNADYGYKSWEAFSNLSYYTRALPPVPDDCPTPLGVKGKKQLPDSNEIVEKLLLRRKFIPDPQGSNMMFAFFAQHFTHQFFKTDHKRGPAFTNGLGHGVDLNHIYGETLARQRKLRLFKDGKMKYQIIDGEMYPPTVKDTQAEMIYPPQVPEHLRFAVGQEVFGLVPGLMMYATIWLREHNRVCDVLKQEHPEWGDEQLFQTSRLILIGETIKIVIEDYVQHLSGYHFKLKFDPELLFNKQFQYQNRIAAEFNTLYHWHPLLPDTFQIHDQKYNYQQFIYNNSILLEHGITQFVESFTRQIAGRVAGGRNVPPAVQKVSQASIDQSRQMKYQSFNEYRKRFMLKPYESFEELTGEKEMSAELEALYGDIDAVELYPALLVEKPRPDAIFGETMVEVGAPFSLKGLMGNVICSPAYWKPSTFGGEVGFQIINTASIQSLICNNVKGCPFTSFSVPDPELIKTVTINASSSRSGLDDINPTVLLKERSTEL
Description: as §1, §2, §3, §4, §5, §6, §7
received one 4µL ICV injection of AAV2-GFP-hCOX2 to the Rcpu and one 4µL ICV injection of AAV2-GFP to the Lcpu, an injection paradigm that successfully led to robust, localized, unilateral COX -2 expression that we could use to compare radiotracers (Figure 2, SI Figure 8). Another rat (animal ID SD2006080) received one 4µL ICV injection of AAV2-GFP-hCOX2 to the Rcpu and no left caudate sham injection (SI
Figure 9). All surgical procedures were performed aseptically. Once rats were prepared and secured with a stereotaxic device (Stoelting Co, Wood Dale, IL), bregma was located. […]
A 33 -gauge neuro syringe (Hamilton, Reno, NV) was inserted around DV 3.5 mm for one injection. I njections were given slowly and the needle was kept in for 15 min to allow for adequate perfusion. […]

SUV Average (9–21 min) (COX-2 [1]; cerebellum): 0.376 ± 0.02
SUV Average (9–21 min) (COX-2 [1]; cortex): 0.359 ± 0.04
SUV Average (9–21 min) (COX-2 [1]; striatum): 0.385 ± 0.05
SUV Average (9–21 min) (COX-2 [2]; cerebellum): 1.84 ± 0.56
SUV Average (9–21 min) (COX-2 [2]; cortex): 1.68 ± 0.50
SUV Average (9–21 min) (COX-2 [2]; striatum): 1.95 ± 0.55
time to significant signal differentiation from wild-type controls (COX-2 [2]; hCOX-2 transgenic mice): 10 to 20 min
SMILES: [11CH3]S(=O)(=O)c1ccc(-c2cccc(NCc3ccoc3)n2)cc1 [[^11C]BRD1158]

Source: PMC11117721, “A Fast-Binding, Functionally Reversible, COX-2 Radiotracer for CNS PET Imaging” (ACS Central Science, 2024)
